Test results: PMC6274262, “Synthesis of Novel Symmetrical 1,4-Disubstituted 1,2,3-Bistriazole Derivatives via ‘Click Chemistry’ and Their Biological Evaluation” (Molecules, 2016)

Tests used:
C. albicans ATCC 60193 = test: Agar-well diffusion antimicrobial screening; type: cell-based, Candida albicans; conditions: Candida albicans, ATCC60193, 18 h, read-out: Inhibition Zone Ca
S. cerevisiae RSKK 251 = test: Agar-well diffusion antimicrobial screening; type: cell-based, Saccharomyces cerevisiae
E. faecalis ATCC 29212 = test: Agar-well diffusion antimicrobial screening; type: cell-based; conditions: Enterococcus faecalis, ATCC29212; 50 μL of DMSO stock (concentration in c1) per 5 mm well, 18 h at 35 °C; standard ampicillin 10 μg; read-out: Inhibition Zone Ef
[1] = test system: Y. pseudotuberculosis ATCC 911; test: microbe, parasite or virus in culture; type: cell-based; conditions: Yersinia pseudotuberculosis, ATCC911, 18 h, read-out: Inhibition Zone Yp
S. aureus ATCC 25923 = test: Agar-well diffusion antimicrobial screening; type: cell-based; conditions: Staphylococcus aureus, ATCC25923; 50 μL of DMSO stock (concentration in c1) per 5 mm well, 18 h at 35 °C; standard ampicillin 10 μg; read-out: Inhibition Zone Sa
E. coli ATCC 35218 = test: Agar-well diffusion antimicrobial screening; type: cell-based; conditions: Escherichia coli, ATCC35218, 18 h, read-out: Inhibition Zone Ec
P. aeruginosa ATCC 10145 = test: Agar-well diffusion antimicrobial screening; type: cell-based; conditions: Pseudomonas aeruginosa, ATCC10145; 50 μL of DMSO stock (concentration in c1) per 5 mm well, 18 h at 35 °C; standard ampicillin 10 μg; read-out: Inhibition Zone Pa
B. cereus 709 Roma = test: Agar-well diffusion antimicrobial screening; type: cell-based; conditions: Bacillus cereus, 50 μL of DMSO stock (concentration in c1) per 5 mm well, 18 h at 35 °C, standard ampicillin 10 μg, read-out: Inhibition Zone Bc
M. smegmatis ATCC607 = test: Agar-well diffusion antimicrobial screening; type: cell-based, Mycobacterium smegmatis; conditions: Mycolicibacterium smegmatis, ATCC607, 72 h; 50 μL of DMSO stock (concentration in c1) per 5 mm well, BHI agar, 3 days at 35 °C; standard streptomycin 10 µg; read-out: Inhibition Zone Ms
[2] = Superoxide radical scavenging assay (NBT photo reduction method); conditions: pH 7.8, 30 °C, 10 min, 560 nm, mean ± S.D., triplicate
Experimental: Superoxide scavenging activity of the compounds and reference were tested in a non-enzymatic superoxide radical (O2^−•) generation assay using a modified spectrophotometrical nitro blue tetrazolium (NBT) photo reduction method. The total volume of the assay mixtures containing riboflavin (2 μM), methionine (13 mM), NBT ([…]), EDTA (0.1 mM), and the test samples (50 mM phosphate buffer, pH = 7.8) was 1 mL. After illuminating with a fluorescent lamp at 30 °C for 10 min., the absorbance of the samples (Asample) was measured at 560 nm. Assay mixture without the compound was used as control (control absorbance, Acontrol). All experiments were carried out in triplicate and results were expressed as the mean ± standard deviation (S.D.). Free O2^−• radical scavenging effect was calculated using Equation (1).

[3] = DPPH radical scavenging assay; conditions: 0.1 mM methanolic DPPH, 30 min in the dark, 517 nm; mean ± S.D., triplicate
Experimental: Some 1,2,3-triazole compounds are known to act either as inhibitors of free radical production or as radical scavengers. Therefore, the potential antioxidant property of the new 1,2,3-trizole compounds was evaluated by determining their DPPH and SOD radical scavenging ability. DPPH is a stable free radical that accepts an electron or hydrogen radical to become a stable species. Due to its odd electron, DPPH gives a strong absorption band at 517 nm. Antioxidants are suitable reducing agents and neutralize the free radicals by pairing the DPPH odd electron with a hydrogen atom, and the DPPH solution turns yellow, observed as the decrease in absorbance at 517 nm.
The compounds were tested for in vitro antioxidant activities by the 2,2-diphenyl-1-picrylhydrazyl (DPPH) free radical scavenging assay method. The total volume of the assay mixtures containing methanolic DPPH solution (0.1 mM) and different concentrations of samples was 1 mL. After incubation in the dark at room temperature for 30 min., absorbance of the samples (Asample) was measured at 517 nm. Assay mixture without compound was used as control (control absorbance, Acontrol). All experiments were carried out in triplicate and results were expressed as the mean ±standard deviation (S.D.). Butylatedhydroxyanisole (BHA) were used as the reference compound. Free radical scavenging effect was calculated using Equation (1).

[4] = target: T1, Electric eel acetyl-cholinesterase enzyme (AchE, Type-VI-S; EC 3.1.1.7) (Electrophorus electricus, UniProt O42275); test: biochemical; conditions: mean ± S.D. of three independent experiments; Tris-HCl pH 8.00, 412 nm
T1 construct: purchased Sigma-Aldrich Type-VI-S
T1 sequence (O42275 24-633): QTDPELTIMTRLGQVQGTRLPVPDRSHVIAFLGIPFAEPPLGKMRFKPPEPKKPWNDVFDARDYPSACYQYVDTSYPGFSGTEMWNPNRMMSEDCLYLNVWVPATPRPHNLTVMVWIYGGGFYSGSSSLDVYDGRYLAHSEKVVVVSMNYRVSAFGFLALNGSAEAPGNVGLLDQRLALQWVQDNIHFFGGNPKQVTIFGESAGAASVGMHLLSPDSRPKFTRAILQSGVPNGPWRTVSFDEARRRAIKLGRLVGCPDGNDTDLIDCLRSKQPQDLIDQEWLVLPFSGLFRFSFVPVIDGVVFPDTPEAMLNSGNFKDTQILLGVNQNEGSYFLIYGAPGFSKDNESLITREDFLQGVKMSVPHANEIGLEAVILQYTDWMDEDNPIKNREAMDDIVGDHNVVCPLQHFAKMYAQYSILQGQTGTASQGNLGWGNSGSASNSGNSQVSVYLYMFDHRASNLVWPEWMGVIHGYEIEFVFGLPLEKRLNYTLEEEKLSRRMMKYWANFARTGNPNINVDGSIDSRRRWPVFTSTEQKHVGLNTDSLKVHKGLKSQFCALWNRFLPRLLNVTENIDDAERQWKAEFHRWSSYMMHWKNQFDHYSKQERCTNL
Experimental: Firstly, all of the compounds stock solution in DMF (1 × 10^−3 M) were prepared and then five different concentrations were prepared from stock solution in buffer (Tris-HCI pH 8.00) for experiments. Briefly 50 µL of 50 mM Tris-HCl buffer (pH 8.00), 125 µL of 3 mM DTNB (in buffer), 25 µL of 0.2 U/mL AChE and 25 µL of sample dissolved in buffer and incubated for 15 min. at 25 °C. Fifteen minutes later, 25 µL of 15 mM acetyl thiocholine iodide were added and incubated 5 min. at room temperature. The reaction was initiated by the addition of acetylcholine iodide. The hydrolysis of this substrate was monitored by the formation of the yellow 5-thio-2-nitrobenzoate anion as a result of the reaction DTNB with thiocholine, catalized by enzyme at a wave length of 412 nm using a 96-well microplate reader (Multiskan Go UV-spectrophotometer, Thermo Fisher Scientific Oy Ratastie 2, Vantaa, Finland).
Inhibition of AChE was calculated by the comparison of reaction rates of the samples relative to the blank sample (DMF in phosphate buffer pH = 8) using the Equation (1) where Acontrol is the activity of enzyme without test sample and Asample is the activity of enzyme with test sample: (1) Scavenging effects (%)=[(Acontrol−Asample)/Acontrol]×100
The experiments were carried out in triplicate and IC50 values were examined.

## OC(Cn1cncn1)(Cn1cncn1)c1ccc(F)cc1F [Flu., Fluconazole, reference compound]
C. albicans ATCC 60193
  zone of inhibition at 5 µg/disc: 25 mm
S. cerevisiae RSKK 251; Saccharomyces cerevisiae, RSKK251, 50 μL of DMSO stock (concentration in c1) per 5 mm well, 18 h at 35 °C, standard fluconazole 5 μg, read-out: Inhibition Zone Sc
  zone of inhibition at 5 µg/disc: 25 mm

## CC1(C)S[C@@H]2[C@H](NC(=O)[C@H](N)c3ccccc3)C(=O)N2[C@H]1C(=O)O [Amp, Ampicillin]
E. faecalis ATCC 29212
  zone of inhibition at 10 µg/disc: 35 mm
[1]
  zone of inhibition at 10 µg/disc: 10 mm
S. aureus ATCC 25923
  zone of inhibition at 10 µg/disc: 10 mm
E. coli ATCC 35218
  zone of inhibition at 10 µg/disc: 10 mm
P. aeruginosa ATCC 10145
  zone of inhibition at 10 µg/disc: 18 mm
B. cereus 709 Roma
  zone of inhibition at 10 µg/disc: 15 mm

## [H]/N=C(/N)N[C@H]1[C@H](O)[C@@H](O)[C@H](O[C@@H]2O[C@@H](C)[C@](O)(C=O)[C@H]2O[C@@H]2O[C@@H](CO)[C@H](O)[C@@H](O)[C@@H]2NC)[C@@H](N/C(N)=N\[H])[C@@H]1O [Strep, Streptomycin]
M. smegmatis ATCC607
  zone of inhibition at 10 µg/disc: 35 mm

## COc1cc(C(C)=O)ccc1OCc1cn(CCCCCCn2cc(COc3ccc(C(C)=O)cc3OC)nn2)nn1 [Compound 3d, 1-(4-((1-(6-(4-((4-Acetyl-2-methoxyphenoxy)methyl)-1H-1,2,3-triazol-1-yl)hexyl)-1H-1,2,3-triazol-4-yl)-methoxy)-2-methoxyphenyl)ethan-1-onen]
[2]
  SOD IC50: 128.24 (±0.10) µg/mL
[3]
  DPPH IC50: 149.21 (±0.06) µg/mL
S. cerevisiae RSKK 251
  Inhibition Zone Sc: -
[4]
  IC50: 75.7 µM
